{"source": "patent US6589504B1", "about": "“Compounds and methods for diagnosing and treating amyloid-related conditions” (Pharmacia & Upjohn Company, priority 2000, dated 2003)", "key": {"[1]": {"assay": "Dose-dependent pharmacokinetics: plasma and brain Cmax after oral dosing", "type": "in vivo", "details": "normal mice, 400 to 3,200 μmol/kg", "description": "Dose-proportionality characteristics were assessed by measuring the maximum concentration (Cmax) for plasma and brain concentrations after oral dosing of normal mice. […] Plasma and brain concentrations were measured by HPLC at 0.5 to 24 hours."}, "[2]": {"target": "T1, amyloid plaque in brains of Tg mice (Homo sapiens, UniProt P05067)", "T1 construct": "from tissue; host or cells: frozen, methanol-fixed brain sections of 12-14 month-old Tg mice", "T1 sequence (P05067 672-713 limits assumed)": "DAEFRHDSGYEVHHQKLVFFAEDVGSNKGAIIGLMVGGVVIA", "assay": "Postmortem staining of amyloid plaque in brain sections", "description": "Brains from 12-14 month-old Tg mice were frozen and sectioned at −20° C. Each section was fixed in ice cold methanol (Aldrich Chemical Co., Milwaukee, Wis.) for 10 minutes, rinsed in buffer and incubated in 4-methyl-7-methoxy-2-(4-quinolylmethylenehydrazino)quinoline for 90 minutes at room temperature. […] Fluorescence intensity in Tg mouse amyloid decreased with drug concentration. […] The […] mouse brains were confirmed to be plaque-free."}, "Neuronal cells": {"tested_on": "Neuronal cells", "assay": "In vitro antioxidant effect, neuronal cytoprotection model", "type": "cell-based", "details": "1, 3, 10, 30 and 100 μM, with and without ferrous ammonium sulfate, 3 hours, LC/MS", "description": "The 4-methyl-7-methoxy-2-(4-quinolylmethylene-hydrazino)quinoline was dissolved in 100×stock of aqueous Locke's buffer to obtain concentrations of 1, 3, 10, 30, and 100 μM solution. Neuronal cells were incubated in each compound solution with and without ferrous ammonium sulfate (200 μm) for 3 hours. High concentration supernatant was obtained from each sample. The samples were analyzed under liquid chromatography/mass spectrometry (LC/MS)."}, "[3]": {"tested_on": "primary neuronal model of FAS-induced lipid peroxidation toxicity", "assay": "In vitro antioxidant effect, ferrous ammonium sulfate (FAS)-induced oxidative toxicity model", "type": "cell-based", "description": "The 4-methyl-7-methoxy-2-(4-quinolylmethylene-hydrazino)quinoline was tested in a primary neuronal model of FAS-induced lipid peroxidation toxicity. The compound was treated in two manners. In one manner, the compound was solubilized as 100×stock in 100% dimethyl sulfoxide (DMSO) to afford panel A. In another manner, the compound was solubilized in aqueous Locke's buffer to give panel B."}, "[4]": {"assay": "In vivo determination of plasma and brain exposure (AUC) after oral dosing", "details": "normal mice; for Kp: brain/plasma", "description": "Plasma and brain exposure were assessed by measuring area under the curve (AUC) after oral dosing of normal mice.\nThe brain to plasma ratios were calculated and reported below.\nThe terminal half-life of compound in the brain was measured to determine the dosing frequency for 10-day tolerance studies. For the three highest doses, brain terminal half-life ranged from 5-7 h."}, "[5]": {"target": "T2, human β-amyloid containing plaques (Homo sapiens, UniProt P05067)", "T2 construct": "from tissue; host or cells: brain of transgenic (Tg) mice carrying the human β-APP gene", "T2 sequence (P05067 672-713 limits assumed)": "as above", "assay": "Determination of in vivo brain distribution (fluorescence of brain sections)", "description": "Transgenic mice, designated “Tg”, were obtained. The transgenic mice carry the human gene for β-APP, a gene associated with β-amyloid deposition in the brain. The mice were treated with.the quinolinehydrazone compound, 4-methyl-7-methoxy-2-(4-quinolylmethylhydrazino)quinoline. Dosing was administered either intravenously or orally. The intravenous dose was administered as a single injection (50 μmol/kg). Orally-treated animals received a single dose (400 μmol/kg) via oral gavage, or were dosed twice-a-day for 10 days (400 μmol/kg/dose/day).\nAge-matched normal mice served as a negative control, i.e. no plaque formation in the animals was indicated. The control mice were treated in the same manner as the transgenic mice, but with placebo.\nIn addition, a group of age-matched Tg mice were treated with the carrier vehicle only.\nAll animals were sacrificed beginning 1, 3 and 10 h after the final dose. Fresh brains of the animals were removed, bisected, and positioned in […] (OCT). The brains were immersed into 2-methylbutane, pre-cooled to […] with liquid nitrogen. The brains were cut into 20 μm thick sections at a temperature of −20° C. Brain sections were collected onto poly-L-lysine-coated glass microscopic slide and treated with (1 drop) of 75%, by volume (v/v), glycerin in […](PBS). […]\nThe section adjacent to each compound-treated section of the brain was stained with thioflavin S (Sigma Chemicals, Milwaukee, Wis., U.S.A.). Sections stained with thioflavin S served as a positive control for identifying plaque. The distribution of compound-associated fluorescence was compared with the distribution of thioflavin S-stained section in order to confirm whether the compound bound plaque.\nAll sections were examined 1 h later to assess artifactual drug diffusion within thawed sections over time."}, "[6]": {"tested_on": "amyloid-like proteins with a beta-pleated sheet conformation", "details": "in vitro; cited from earlier work"}, "[7]": {"details": "30 and 100 μM, 1% DMSO experiments (panel A)"}}, "note": "Like-named read-outs stand apart in the source and are kept apart here.", "data": [{"smiles": "COc1ccc2c(C)cc(NN=Cc3ccnc4ccccc34)nc2c1", "note": "[4-methyl-7-methoxy-2-(4-quinolylmethylenehydrazino)quinoline]", "values": [{"measurement": "Cmax for brain, dose proportionality", "setting": "[1]", "result": "increases proportionally"}, {"measurement": "Cmax for plasma, dose proportionality", "setting": "[1]", "result": "increases proportionally"}, {"measurement": "localization of compound fluorescence, confirmed by thioflavin S staining of adjacent sections", "setting": "[2]; Tg mouse brain sections", "result": "does localize in amyloid plaques"}, {"measurement": "staining in brains of transgene-free mice", "setting": "[2]; brain sections of transgene-free mice", "result": "not in brains of transgene-free mice"}, {"measurement": "antioxidant effect", "setting": "Neuronal cells", "result": "demonstrated antioxidant properties"}, {"measurement": "cell morphology, brightfield photographs", "setting": "[3]; 10 μM + FAS cells versus control cells", "result": "no different than cells treated with no drug and no FAS"}, {"measurement": "neuronal protection against FAS", "setting": "[3]; 10 μM compound, 200 μM FAS, 3 hours, 14C-AIB uptake or LDH release", "result": "close to or complete neuronal protection"}, {"measurement": "drug toxicity to neuronal cells", "setting": "[3]; 30 μM, aqueous preparation (panel B)", "result": "much less drug toxicity"}, {"measurement": "concentration range of concentration-dependent inhibition of FAS toxicity", "setting": "[3]; 200 μM FAS, 3 hours, 14C-AIB uptake or LDH release", "result": "0.3 to 10", "unit": "µM"}, {"measurement": "drug toxicity to neuronal cells", "setting": "[3]; [7]", "result": "inherent drug toxicity"}, {"measurement": "neuronal protection against FAS", "setting": "[3]; [7]", "result": "no neuronal protection"}, {"measurement": "neuronal protection against FAS", "setting": "[3]; 30 and 100 μM, aqueous preparation (panel B)", "result": "considerable neuronal protection"}, {"measurement": "Kp", "setting": "[4]; mouse, oral, dose 51 μmole/kg, read-out: B/P Ratio AUC", "result": 5.3}, {"measurement": "Kp", "setting": "[4]; mouse, oral, dose 208 μmole/kg, read-out: B/P Ratio AUC", "result": 3.2}, {"measurement": "Kp", "setting": "[4]; mouse, oral, dose 421 μmole/kg, read-out: B/P Ratio AUC", "result": 2.5}, {"measurement": "Kp", "setting": "[4]; mouse, oral, dose 831 μmole/kg, read-out: B/P Ratio AUC", "result": 5.7}, {"measurement": "Kp", "setting": "[4]; mouse, oral, dose 1472 μmole/kg, read-out: B/P Ratio AUC", "result": 5.7}, {"measurement": "Kp", "setting": "[4]; mouse, oral, dose 3024 μmole/kg, read-out: B/P Ratio AUC", "result": 7.3}, {"measurement": "Kp", "setting": "[4]; mouse, oral, over the dose range tested, read-out: brain levels relative to plasma levels, average", "result": 5}, {"measurement": "half-life", "setting": "[4]; mouse, brain, oral, three highest doses, read-out: brain terminal half-life", "result": "5 to 7", "unit": "h"}, {"measurement": "penetration to the brain tissue", "setting": "[4]; oral", "result": "good penetration of the compound to the brain tissue"}, {"measurement": "plasma exposure, saturation", "setting": "[4]; oral, 3,024 μmol/kg", "result": "evidence of saturation"}, {"measurement": "brain exposure, dose dependence", "setting": "[4]; oral, 421 to 1,472 μmol/kg", "result": "increased more rapidly"}, {"measurement": "plasma exposure, dose proportionality", "setting": "[4]; oral, 421 to 1,472 μmol/kg", "result": "increased proportionally"}, {"measurement": "plaque burden shown in brain sections compared with thioflavin S stained sections", "setting": "[5]; Tg mice receiving the compound", "result": "marked plaque burden"}, {"measurement": "drug-related fluorescence in brain sections in areas of plaque formation", "setting": "[5]; Tg mice, i.v. 50 μmol/kg or oral 400 μmol/kg, λex 365 nm, λem 400 nm", "result": "intense drug-related fluorescence"}, {"measurement": "binding to plaques in vivo", "setting": "[5]; Tg mice, i.v. or oral dosing", "result": "preferentially binds to human β-amyloid containing plaques"}, {"measurement": "brain penetration", "setting": "[5]; Tg mice, i.v. or oral dosing", "result": "brain penetrable"}]}, {"smiles": "Nc1c(N=Nc2ccc(-c3ccc(N=Nc4cc(S(=O)(=O)[O-])c5ccccc5c4N)cc3)cc2)cc(S(=O)(=O)[O-])c2ccccc12.[Na+].[Na+]", "note": "[Congo red, 3,3′-[[1,1′-biphenyl]-4,4′-diylbis(azo)]bis[4-amino-1-naphthalenesulfonic acid] disodium salt]", "values": [{"measurement": "binding to amyloid-like proteins", "setting": "[6]", "result": "demonstrated binding"}]}]}
